Results reported in patent publication US5159081A, “Intermediates of peripherally selective N-carbonyl-3,4,4-trisubstituted piperidine opioid antagonists” (Eli Lilly and Company, priority 1991, dated 1992).
Counter-ions that a name gives are not always drawn. Like-named read-outs stand apart in the source and are kept apart here.

What was measured:
[1] = molecular target: T1, opioid receptor (Mus musculus, UniProt P42866); assay: in vivo; design: species or system CF-1 male mice; conditions: sc
T1 construct: Five CF-1 male mice (Charles River, Portage, MI); from tissue; host or cells: living CF-1 male mice (whole animal, endogenous receptor)

[2] = molecular target: peripheral opioid receptors (Mus musculus, UniProt P42866); assay: mouse diarrhea test: precipitated diarrhea in morphine-maintained mice (peripheral opioid activity); assay type: in vivo; conditions: mouse diarrhea test, morphine-maintained mice, subcutaneous or oral, 30 min observation
[3] = tested on: peripheral opioid receptors; assay: as above; assay type: in vivo
[4] = molecular target: T2, mu receptor (Rattus norvegicus, UniProt P33535); assay: Naloxone [3H] opioid receptor binding assay (mu receptor); design: species or system rat (male Sprague Dawley)
T2 construct: The brain tissue, rat whole brain minus cerebellum for mu was homogenized; from tissue; host or cells: brain minus cerebellum of male Sprague Dawley rats, homogenate fraction

[5] = mouse writhing test, […], s.c. 20 min before acetic acid, read-out: AD50 (the source's name)
[6] = AD50 mouse writhing / ED50 mouse diarrhea, higher = greater relative peripheral antagonism
[7] = 20 min, pH 7.4, read-out: % displacement at 10 nM
[8] = 20 min, pH 7.4, read-out: % displacement at 100 nM
[9] = […], rat whole brain minus cerebellum, [3H]naloxone 0.5 nM, pH 7.4, 37° C., 20 min, read-out: Ki
[10] = 20 min, pH 7.4, 10 nM test compound, [3H]naloxone 0.5 nM, mu receptor, read-out: % displacement at 10 nM
[11] = 20 min, pH 7.4, 100 nM test compound, [3H]naloxone 0.5 nM, mu receptor, read-out: % displacement at 100 nM

T2 sequence (P33535 whole entry): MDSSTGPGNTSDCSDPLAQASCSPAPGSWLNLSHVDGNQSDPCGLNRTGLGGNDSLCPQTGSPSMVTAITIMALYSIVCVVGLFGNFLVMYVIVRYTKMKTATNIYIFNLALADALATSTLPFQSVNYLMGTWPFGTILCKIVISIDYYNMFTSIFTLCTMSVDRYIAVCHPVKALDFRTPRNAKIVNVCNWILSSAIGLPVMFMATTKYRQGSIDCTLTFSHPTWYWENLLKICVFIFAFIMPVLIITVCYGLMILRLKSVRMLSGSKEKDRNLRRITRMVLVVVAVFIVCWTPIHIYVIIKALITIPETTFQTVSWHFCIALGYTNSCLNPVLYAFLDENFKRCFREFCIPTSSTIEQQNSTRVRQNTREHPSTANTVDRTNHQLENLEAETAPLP
Chain of peripheral opioid receptors (Mus musculus, UniProt P42866) (P42866 whole entry): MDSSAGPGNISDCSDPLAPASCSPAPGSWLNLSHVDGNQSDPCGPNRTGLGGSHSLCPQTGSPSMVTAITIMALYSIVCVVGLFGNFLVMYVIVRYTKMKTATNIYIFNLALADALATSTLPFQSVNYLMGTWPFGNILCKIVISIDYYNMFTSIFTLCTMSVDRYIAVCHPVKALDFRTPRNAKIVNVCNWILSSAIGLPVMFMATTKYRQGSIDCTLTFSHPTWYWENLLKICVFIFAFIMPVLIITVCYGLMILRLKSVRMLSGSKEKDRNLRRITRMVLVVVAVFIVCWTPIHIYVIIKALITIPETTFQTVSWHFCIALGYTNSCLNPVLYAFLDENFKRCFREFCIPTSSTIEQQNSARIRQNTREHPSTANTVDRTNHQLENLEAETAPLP
T1 sequence (P42866 whole entry): as above

CC1CN(C[C@H](CC2CCCCC2)NC(=O)CCCC(=O)O)CCC1(C)c1cccc(O)c1 (single isomer, unassigned; (+)) [Example 16] was tested, and the ED50 [1, 5] was greater than 20 mg/kg, the ED50 [2] was 0.12 mg/kg and the “Ratio (ratio of AD50 to ED50)” value [3, 6] was greater than 166. For the same compound, the inhibition at 0.01 µM [4, 7] was 97%, the inhibition at 0.1 µM [4, 8] was 100% and the Ki [4, 9] was 0.96 nM.

With CCCCCCCOC(=O)CCCC(=O)N[C@@H](CC1CCCCC1)CN1CC[C@@](C)(c2cccc(O)c2)[C@@H](C)C1 [Example 57] the ED50 [1, 5] was greater than 40 mg/kg, the ED50 ([2]; 0.5 h, read-out: ED50) was 0.068 mg/kg and the “Ratio (ratio of AD50 to ED50)” value [3, 6] was greater than 588. For the same compound, the inhibition at 0.01 µM [4, 10] was 0% and the inhibition at 0.1 µM [4, 11] was 9%.

In the case of CNC(=O)COC(=O)CCCC(=O)N[C@@H](CC1CCCCC1)CN1CC[C@](C)(c2cccc(O)c2)[C@H](C)C1 [Example 62], the ED50 [1, 5] is reported as greater than 40 mg/kg, the ED50 [2] is reported as 0.03 mg/kg and the “Ratio (ratio of AD50 to ED50)” value [3, 6] is reported as greater than 1333. The inhibition at 0.01 µM [4, 7] was 70% and the inhibition at 0.1 µM [4, 8] was 96%.

C[C@H]1CN(CC(Cc2ccccc2)NC(=O)CCCC(=O)O)CC[C@@]1(C)c1cccc(O)c1 (relative stereo) [Example 15, Trans-5-((2-(4-(3-hydroxyphenyl)-3,4-dimethyl-1-piperidinyl)-1-(D-(phenylmethyl)ethyl)amino))-5-oxopentanoic acid monohydrate] was tested, and the ED50 [1, 5] was 1.39 mg/kg, the ED50 [2] was 0.028 mg/kg and the “Ratio (ratio of AD50 to ED50)” value ([3]; mouse, in vivo) was 50. It also gave an inhibition at 0.01 µM [4, 7] of 80%, an inhibition at 0.1 µM [4, 8] of 99% and a Ki [4, 9] of 2.96 nM.

C[C@H]1CN(CCC(CC2CCCCC2)NC(=O)CCC(=O)O)CC[C@@]1(C)c1cccc(O)c1 (stereo partly shown) [Example 1, 4-[(3-(4-(3-hydroxyphenyl)-3,4-dimethyl-1-piperidinyl)-1-(cyclohexylmethyl)propyl)amino]-4-oxobutanoic acid monohydrate] was tested, and the ED50 ([1]; mouse, read-out: AD50) was greater than 40 mg/kg, the ED50 [2] was 0.01 mg/kg and the “Ratio (ratio of AD50 to ED50)” value ([3]; mouse, in vivo) was greater than 4000. It also gave a Ki [4] of 6.88 nM, an inhibition at 0.01 µM [4, 7] of 72% and an inhibition at 0.1 µM [4, 8] of 94%.

With CCCOC(=O)CCCC(=O)N[C@@H](CC1CCCCC1)CN1CC[C@](C)(c2cccc(O)c2)[C@H](C)C1 [Example 53] the ED50 [1, 5] was greater than 40 mg/kg, the ED50 [2] was 1.06 mg/kg and the “Ratio (ratio of AD50 to ED50)” value [3, 6] was greater than 38. It also gave an inhibition at 0.01 µM [4, 7] of 50% and an inhibition at 0.1 µM [4, 8] of 88%.

For CC(C)CC(=O)NC(CCCNC(=N)N[N+](=O)[O-])C(=O)NCCN1CCC(C)(c2cccc(O)c2)C(C)C1 (stereo not drawn) [Example 43, Trans-N-(2-(4-(3-hydroxyphenyl)-3,4-dimethyl-1-piperidinyl)ethyl)-2-((3-methyl-1-oxobutyl)amino)-5-((imino(nitroamino)methyl)amino) pentanamide], the ED50 [1, 5] was greater than 10 mg/kg, the ED50 ([2]; 0.5 h, read-out: ED50) was less than 1 mg/kg and the “Ratio (ratio of AD50 to ED50)” value [3, 6] was greater than 10. The inhibition at 0.01 µM [4, 10] was 59% and the inhibition at 0.1 µM [4, 11] was 97%.

With C[C@H]1CN(CC(Cc2ccccc2)NC(=O)CCCNC(=O)OC(C)(C)C)CC[C@@]1(C)c1cccc(O)c1 (stereo partly drawn) [Example 18, Trans-(4-((1-((4-(3-hydroxyphenyl)-3,4-dimethyl-1-piperidinyl)methyl)-2-phenylethyl)amino)-4-oxobutyl) carbamic acid, 1,1 dimethylethyl ester monohydrochloride] the ED50 [1, 5] was 1.31 mg/kg, the ED50 [2] was 0.30 mg/kg and the “Ratio (ratio of AD50 to ED50)” value [3, 6] was 4.5. The inhibition at 0.01 µM [4, 7] was 86%, the inhibition at 0.1 µM [4, 8] was 100% and the Ki [4, 9] was 0.63 nM.

For C[C@H]1CN(CCN(C(=O)CCC(=O)O)C2CCCC2)CC[C@@]1(C)c1cccc(O)c1 (relative stereo) [Example 24, 4-(cyclopentyl-2-(trans-4-(3-hydroxyphenyl)-3,4-dimethyl-1-piperidinyl)ethyl)amino)-4-oxobutanoic acid hemihydrate], the ED50 [1, 5] was 19.2 mg/kg, the ED50 ([2]; 0.5 h, read-out: ED50) was 0.62 mg/kg and the “Ratio (ratio of AD50 to ED50)” value [3, 6] was 31. It also gave an inhibition at 0.01 µM [4, 10] of 48% and an inhibition at 0.1 µM [4, 11] of 89%.

With C[C@H]1CN(CCN(C(=O)CC(N)=O)C2CCCCC2)CC[C@@]1(C)c1cccc(O)c1 (relative stereo) [Example 34, N-Cyclohexyl-N-(2-(trans-4-(3-hydroxyphenyl)-3,4-dimethyl-1-piperidinyl)ethyl)propanediamidehydrochloride monohydrate] the ED50 [1, 5] was 8.2 mg/kg, the ED50 ([2]; 0.5 h, read-out: ED50) was 0.39 mg/kg and the “Ratio (ratio of AD50 to ED50)” value [3, 6] was 21. For the same compound, the inhibition at 0.01 µM [4, 10] was 77% and the inhibition at 0.1 µM [4, 11] was 91%.

In the case of COC(=O)CCCC(=O)N[C@@H](CC1CCCCC1)CN1CC[C@@](C)(c2cccc(O)c2)[C@@H](C)C1 [Example 50], the ED50 [1, 5] is reported as 20 mg/kg, the ED50 [2] is reported as 0.056 mg/kg and the “Ratio (ratio of AD50 to ED50)” value [3, 6] is reported as 357. The inhibition at 0.01 µM [4, 7] was 87%, the inhibition at 0.1 µM [4, 8] was 99% and the Ki [4, 9] was 3.24 nM.

With COC1CCC(OC(=O)CCCC(=O)N[C@@H](CC2CCCCC2)CN2CC[C@](C)(c3cccc(O)c3)[C@H](C)C2)CC1 (stereo partly shown) [Example 69] the ED50 [1, 5] was greater than 40 mg/kg, the ED50 ([2]; 0.5 h, read-out: ED50) was 0.03 mg/kg and the “Ratio (ratio of AD50 to ED50)” value [3, 6] was greater than 1333. It also gave an inhibition at 0.01 µM [4, 10] of 37% and an inhibition at 0.1 µM [4, 11] of 83%.

In the case of C[C@H]1CN(C[C@@H](Cc2ccccc2)NC(=O)CC(=O)O)CC[C@@]1(C)c1cccc(O)c1 [Example 11, Trans-3-((2-(4-(3-hydroxyphenyl)-3,4-dimethyl-1-piperidinyl)-1-(D-(phenylmethyl)ethyl)amino))-3-oxopropionic acid], the ED50 [1, 5] is reported as 12.4 mg/kg, the ED50 ([2]; 0.5 h, read-out: ED50) is reported as 0.3 mg/kg and the “Ratio (ratio of AD50 to ED50)” value [3, 6] is reported as 41. It also gave an inhibition at 0.01 µM [4, 10] of 36% and an inhibition at 0.1 µM [4, 11] of 80%.

For CC(C)CC(CCN1CC[C@@](C)(c2cccc(O)c2)[C@@H](C)C1)NC(=O)CCCC(=O)O (stereo partly shown) [Example 4, 5-[[1-(2-methylpropyl)-3-[4-(3-hydroxyphenyl)-3,4-dimethyl-1-piperidinyl]propyl]amino]-5-oxopentanoic acid], the ED50 ([1]; mouse, read-out: AD50) was 17.5 mg/kg, the ED50 [2] was 0.07 mg/kg and the “Ratio (ratio of AD50 to ED50)” value ([3]; mouse, in vivo) was 250. It also gave a Ki [4] of 1.41 nM, an inhibition at 0.01 µM [4, 7] of 86% and an inhibition at 0.1 µM [4, 8] of 94%.

For C[C@@H]1CN(C[C@H](CC2CCCCC2)NC(=O)CCCC(=O)OCC(N)=O)CC[C@]1(C)c1cccc(O)c1 [Example 60], the ED50 [1, 5] was greater than 10 mg/kg, the ED50 [2] was 0.035 mg/kg and the “Ratio (ratio of AD50 to ED50)” value [3, 6] was greater than 285. The inhibition at 0.01 µM [4, 7] was 76%, the inhibition at 0.1 µM [4, 8] was 95% and the Ki [4, 9] was 5.96 nM.

With COC(=O)CCCC(=O)N[C@@H](CC1CCCCC1)CN1CC[C@](C)(c2cccc(O)c2)[C@H](C)C1 [Example 49] the ED50 [1, 5] was 9.9 mg/kg, the ED50 [2] was greater than 10 mg/kg and the inhibition at 0.01 µM [4, 7] was 83%. For the same compound, the inhibition at 0.1 µM [4, 8] was 97% and the Ki [4, 9] was 8.19 nM.

CCOC(=O)CCCC(=O)NC(CCN1CC[C@@](C)(c2cccc(O)c2)[C@@H](C)C1)CC(C)C (stereo in doubt) [Example 3B, 5-((1-(2-(trans-4-(3-hydroxyphenyl)-3,4-dimethyl-1-piperidinyl)ethyl)-3-methylbutyl)amino)-5-oxopentanoic acid ethyl ester monohydrochloride] was tested, and the ED50 [1, 5] was 15.5 mg/kg, the “Ratio (ratio of AD50 to ED50)” value [3, 6] was 111 and the inhibition at 0.01 µM [4, 7] was 93%. For the same compound, the inhibition at 0.1 µM [4, 8] was 99% and the Ki [4, 9] was 0.86 nM.

C[C@H]1CN(CCN(CC2CCCCC2)C(=O)CCC(=O)O)CC[C@@]1(C)c1cccc(O)c1 (relative stereo) [Example 26, 4-(cyclohexylmethyl-(2-(trans-4-(3-hydroxyphenyl)-3,4-dimethyl-1-piperidinyl)ethyl)amino)-4-oxobutanoic acid monohydrate] was tested, and the ED50 [1, 5] was 3.6 mg/kg, the “Ratio (ratio of AD50 to ED50)” value [3, 6] was 72 and the inhibition at 0.01 µM [4, 7] was 73%. The inhibition at 0.1 µM [4, 8] was 100% and the Ki [4, 9] was 1.91 nM.
